Assay results reported in ChEMBL document CHEMBL3885881, “DrugMatrix”.

Species: Rattus norvegicus
Test: DrugMatrix - Regimen: Daily Repeat
Type: toxicity, organism-based, Sprague-Dawley
Design: regimen Daily Repeat, gender Male, age 6-8 weeks
Conditions: in vivo, sc, route subcutaneous, […]; for ABSOLUTE BASOPHIL / BASOPHIL / ABSOLUTE EOSINOPHIL / ABSOLUTE LYMPHOCYTE / ABSOLUTE MONOCYTE / ABSOLUTE SEGMENTED NEUTROPHIL / EOSINOPHIL / ERYTHROCYTE COUNT / HEMATOCRIT / HEMOGLOBIN / LEUKOCYTE COUNT / LYMPHOCYTE / MEAN CORPUSCULAR HEMOGLOBIN / MEAN CORPUSCULAR HEMOGLOBIN CONCENTRATION / MEAN CORPUSCULAR VOLUME / MONOCYTE / NEUTROPHIL / NUCLEATED RED BLOOD CELLS / PLATELET COUNT: tissue Blood; for CREATININE / ALANINE AMINOTRANSFERASE / ALBUMIN / ALKALINE PHOSPHATASE / ASPARTATE AMINOTRANSFERASE / BLOOD UREA NITROGEN / CARBON DIOXIDE / CHLORIDE / CHOLESTEROL / CREATINE PHOSPHOKINASE / GLUCOSE / LACTATE DEHYDROGENASE / LIPASE / PHOSPHORUS / POTASSIUM / SODIUM / TOTAL BILIRUBIN / TOTAL PROTEIN / URIC ACID: tissue Plasma
[1] = 0 mg/kg, 72 h, dose level Control, time 3 day
[2] = 0 mg/kg, 120 h, dose level Control, time 5 day
[3] = 0.1 mg/kg, 72 h, dose level Low, time 3 day
[4] = 0.1 mg/kg, 120 h, dose level Low, time 5 day
[5] = 2 mg/kg, 72 h, dose level M2, time 3 day
[6] = 2 mg/kg, 120 h, dose level M2, time 5 day

C[C@]12CC[C@@H]3c4ccc(OC(=O)c5ccccc5)cc4CC[C@H]3[C@@H]1CC[C@@H]2O [ESTRADIOL BENZOATE]
ABSOLUTE BASOPHIL [1]: 0 CELLS/uL
BASOPHIL [1]: 0%
ABSOLUTE BASOPHIL [2]: 0 CELLS/uL
BASOPHIL [2]: 0%
CREATININE [2]: 0.17 mg/dL
ABSOLUTE BASOPHIL [3]: 0 CELLS/uL
ABSOLUTE EOSINOPHIL [3]: 27.33 CELLS/uL
ABSOLUTE LYMPHOCYTE [3]: 9086.67 CELLS/uL
ABSOLUTE MONOCYTE [3]: 78.67 CELLS/uL
ABSOLUTE SEGMENTED NEUTROPHIL [3]: 1407.33 CELLS/uL
BASOPHIL [3]: 0%
EOSINOPHIL [3]: 0.33%
ERYTHROCYTE COUNT [3]: 6.05 x10E6/uL
HEMATOCRIT [3]: 38.9%
HEMOGLOBIN [3]: 13.37 G/DL
LEUKOCYTE COUNT [3]: 10.6 x10E3/uL
LYMPHOCYTE [3]: 85.67%
MEAN CORPUSCULAR HEMOGLOBIN [3]: 22.27 pg
MEAN CORPUSCULAR HEMOGLOBIN CONCENTRATION [3]: 34.73 G/DL
MEAN CORPUSCULAR VOLUME [3]: 64.23 fL
MONOCYTE [3]: 0.67%
NEUTROPHIL [3]: 13.33%
NUCLEATED RED BLOOD CELLS [3]: 0 /100WBC
PLATELET COUNT [3]: 1490.33 x10E3/uL
ALANINE AMINOTRANSFERASE [3]: 35.67 u/L
ALBUMIN [3]: 4.43 G/DL
ALKALINE PHOSPHATASE [3]: 250.67 u/L
ASPARTATE AMINOTRANSFERASE [3]: 76 u/L
BLOOD UREA NITROGEN [3]: 10 mg/dL
CARBON DIOXIDE [3]: 23.67 mmol/L
CHLORIDE [3]: 100.33 MEQ/L
CHOLESTEROL [3]: 76.67 mg/dL
CREATINE PHOSPHOKINASE [3]: 460 u/L
CREATININE [3]: 0.17 mg/dL
GLUCOSE [3]: 191.67 mg/dL
LACTATE DEHYDROGENASE [3]: 269.67 u/L
LIPASE [3]: 9 u/L
PHOSPHORUS [3]: 12.77 mg/dL
POTASSIUM [3]: 6.18 MEQ/L
SODIUM [3]: 140.73 MEQ/L
TOTAL BILIRUBIN [3]: 0.1 mg/dL
TOTAL PROTEIN [3]: 5.77 G/DL
URIC ACID [3]: 3.8 mg/dL
ABSOLUTE BASOPHIL [4]: 0 CELLS/uL
ABSOLUTE EOSINOPHIL [4]: 79 CELLS/uL
ABSOLUTE LYMPHOCYTE [4]: 6274.33 CELLS/uL
ABSOLUTE MONOCYTE [4]: 295 CELLS/uL
ABSOLUTE SEGMENTED NEUTROPHIL [4]: 551.67 CELLS/uL
BASOPHIL [4]: 0%
EOSINOPHIL [4]: 1%
ERYTHROCYTE COUNT [4]: 5.91 x10E6/uL
HEMATOCRIT [4]: 35.77%
HEMOGLOBIN [4]: 13.47 G/DL
LEUKOCYTE COUNT [4]: 7.2 x10E3/uL
LYMPHOCYTE [4]: 86.67%
MEAN CORPUSCULAR HEMOGLOBIN [4]: 22.8 pg
MEAN CORPUSCULAR HEMOGLOBIN CONCENTRATION [4]: 37.67 G/DL
MEAN CORPUSCULAR VOLUME [4]: 60.53 fL
MONOCYTE [4]: 4%
NEUTROPHIL [4]: 8.33%
NUCLEATED RED BLOOD CELLS [4]: 0 /100WBC
PLATELET COUNT [4]: 1231.67 x10E3/uL
ALANINE AMINOTRANSFERASE [4]: 39.67 u/L
ALBUMIN [4]: 5.37 G/DL
ALKALINE PHOSPHATASE [4]: 187.33 u/L
ASPARTATE AMINOTRANSFERASE [4]: 63 u/L
BLOOD UREA NITROGEN [4]: 13.67 mg/dL
CARBON DIOXIDE [4]: 29 mmol/L
CHLORIDE [4]: 98.33 MEQ/L
CHOLESTEROL [4]: 96.33 mg/dL
CREATINE PHOSPHOKINASE [4]: 578 u/L
CREATININE [4]: 0.18 mg/dL
GLUCOSE [4]: 128.33 mg/dL
LACTATE DEHYDROGENASE [4]: 137 u/L
LIPASE [4]: 10.67 u/L
PHOSPHORUS [4]: 11.5 mg/dL
POTASSIUM [4]: 6.15 MEQ/L
SODIUM [4]: 142.73 MEQ/L
TOTAL BILIRUBIN [4]: 0.1 mg/dL
TOTAL PROTEIN [4]: 7.67 G/DL
URIC ACID [4]: 2.73 mg/dL
ABSOLUTE BASOPHIL [5]: 0 CELLS/uL
ABSOLUTE EOSINOPHIL [5]: 32 CELLS/uL
ABSOLUTE LYMPHOCYTE [5]: 8090.33 CELLS/uL
ABSOLUTE MONOCYTE [5]: 25.67 CELLS/uL
ABSOLUTE SEGMENTED NEUTROPHIL [5]: 718.67 CELLS/uL
BASOPHIL [5]: 0%
EOSINOPHIL [5]: 0.33%
ERYTHROCYTE COUNT [5]: 5.61 x10E6/uL
HEMATOCRIT [5]: 37.6%
HEMOGLOBIN [5]: 14.37 G/DL
LEUKOCYTE COUNT [5]: 8.87 x10E3/uL
LYMPHOCYTE [5]: 91.33%
MEAN CORPUSCULAR HEMOGLOBIN [5]: 25.63 pg
MEAN CORPUSCULAR HEMOGLOBIN CONCENTRATION [5]: 38.23 G/DL
MEAN CORPUSCULAR VOLUME [5]: 67.03 fL
MONOCYTE [5]: 0.33%
NEUTROPHIL [5]: 8%
NUCLEATED RED BLOOD CELLS [5]: 0.33 /100WBC
PLATELET COUNT [5]: 1211.67 x10E3/uL
ALANINE AMINOTRANSFERASE [5]: 46.67 u/L
ALBUMIN [5]: 3.97 G/DL
ALKALINE PHOSPHATASE [5]: 647.67 u/L
ASPARTATE AMINOTRANSFERASE [5]: 67.67 u/L
BLOOD UREA NITROGEN [5]: 9.67 mg/dL
CARBON DIOXIDE [5]: 23.33 mmol/L
CHLORIDE [5]: 96.33 MEQ/L
CHOLESTEROL [5]: 36.33 mg/dL
CREATINE PHOSPHOKINASE [5]: 231.67 u/L
CREATININE [5]: 0.28 mg/dL
GLUCOSE [5]: 138.67 mg/dL
LACTATE DEHYDROGENASE [5]: 103 u/L
LIPASE [5]: 9.33 u/L
PHOSPHORUS [5]: 10.07 mg/dL
POTASSIUM [5]: 5.43 MEQ/L
SODIUM [5]: 138.43 MEQ/L
TOTAL BILIRUBIN [5]: 0.1 mg/dL
TOTAL PROTEIN [5]: 5.77 G/DL
URIC ACID [5]: 0.63 mg/dL
ABSOLUTE BASOPHIL [6]: 0 CELLS/uL
ABSOLUTE EOSINOPHIL [6]: 34.67 CELLS/uL
ABSOLUTE LYMPHOCYTE [6]: 10740.67 CELLS/uL
ABSOLUTE MONOCYTE [6]: 0 CELLS/uL
ABSOLUTE SEGMENTED NEUTROPHIL [6]: 658 CELLS/uL
BASOPHIL [6]: 0%
EOSINOPHIL [6]: 0.33%
ERYTHROCYTE COUNT [6]: 6.23 x10E6/uL
HEMATOCRIT [6]: 39.53%
HEMOGLOBIN [6]: 15 G/DL
LEUKOCYTE COUNT [6]: 11.43 x10E3/uL
LYMPHOCYTE [6]: 93.67%
MEAN CORPUSCULAR HEMOGLOBIN [6]: 24.17 pg
MEAN CORPUSCULAR HEMOGLOBIN CONCENTRATION [6]: 38 G/DL
MEAN CORPUSCULAR VOLUME [6]: 63.5 fL
MONOCYTE [6]: 0%
NEUTROPHIL [6]: 6%
NUCLEATED RED BLOOD CELLS [6]: 0 /100WBC
PLATELET COUNT [6]: 1334 x10E3/uL
ALANINE AMINOTRANSFERASE [6]: 47.33 u/L
ALBUMIN [6]: 3.9 G/DL
ALKALINE PHOSPHATASE [6]: 436.33 u/L
ASPARTATE AMINOTRANSFERASE [6]: 73.67 u/L
BLOOD UREA NITROGEN [6]: 13.67 mg/dL
CARBON DIOXIDE [6]: 24.33 mmol/L
CHLORIDE [6]: 103.67 MEQ/L
CHOLESTEROL [6]: 34 mg/dL
CREATINE PHOSPHOKINASE [6]: 348.33 u/L
CREATININE [6]: 0.2 mg/dL
GLUCOSE [6]: 160.67 mg/dL
LACTATE DEHYDROGENASE [6]: 186.67 u/L
LIPASE [6]: 8.67 u/L
PHOSPHORUS [6]: 11.73 mg/dL
POTASSIUM [6]: 5.75 MEQ/L
